The values below come from article PMC11269473, “Monoamine oxidase inhibition properties of 2,1-benzisoxazole derivatives” (Molecular Diversity, 2023).

One data set has as its target T1, recombinant human MAO-B (Homo sapiens, UniProt P27338).
T1 construct: purchased Sigma-Aldrich; host or cells: insect cells (microsomes)
T1 sequence (P27338 1-520): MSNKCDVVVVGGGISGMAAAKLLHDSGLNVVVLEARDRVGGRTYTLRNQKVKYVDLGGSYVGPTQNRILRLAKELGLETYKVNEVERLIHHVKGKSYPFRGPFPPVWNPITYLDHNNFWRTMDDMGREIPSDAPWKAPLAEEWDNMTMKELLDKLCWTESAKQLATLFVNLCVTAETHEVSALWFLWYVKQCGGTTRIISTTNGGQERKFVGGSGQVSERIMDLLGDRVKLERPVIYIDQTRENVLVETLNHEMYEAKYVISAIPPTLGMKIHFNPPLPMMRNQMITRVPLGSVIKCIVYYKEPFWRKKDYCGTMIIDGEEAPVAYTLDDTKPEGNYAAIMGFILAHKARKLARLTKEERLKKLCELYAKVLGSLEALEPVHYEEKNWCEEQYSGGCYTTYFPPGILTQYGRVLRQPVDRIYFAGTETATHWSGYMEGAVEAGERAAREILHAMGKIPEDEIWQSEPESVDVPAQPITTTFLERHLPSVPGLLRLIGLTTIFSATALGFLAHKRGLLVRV
Kind of data set: MAO-B inhibition, IC50 determination with kynuramine as substrate (fluorescence of 4-hydroxyquinoline). It is filed as biochemical. Particulars: for IC50: recombinant human MAO-B, 50 µM kynuramine, mean ± SD of triplicate, NI = no inhibition observed at 100 µM; for SI (selectivity index): SI = IC50(MAO-A)/IC50(MAO-B). How it is done: (§1) The MAO inhibition properties of the 2,1-benzisoxazole derivatives were investigated using the commercially available recombinant human MAO-A and MAO-B enzymes with kynuramine serving as substrate. MAO oxidizes kynuramine to yield 4-hydroxyquinoline, which was measured by fluorescence spectrophotometry.
(§2) For the MAO inhibition studies, a Varian Cary Eclipse fluorescence spectrophotometer was employed. Microsomes from insect cells containing recombinant human MAO-A and MAO-B (5 mg protein/mL) and kynuramine dihydrobromide were obtained from Sigma-Aldrich.
IC50 values for the inhibition of MAO were measured as described previously. Microsomes from insect cells containing recombinant human MAO-A and MAO-B (5 mg protein/mL) served as enzyme sources (Sigma-Aldrich) while kynuramine was used as non-specific MAO substrate. The enzyme reactions (200 µL reactions prepared in 96-well microtiter plates) contained phosphate buffer (100 mM, pH 7.4), 50 µM kynuramine and the test inhibitors at concentrations of 0.003–100 µM. […] The concentration of 4-hydroxyquinoline, the product of kynuramine oxidation by MAO, was measured by fluorescence spectrophotometry (λex = 310 nm; λem = 400 nm). IC50 values were estimated from sigmoidal plots of enzyme catalytic rate versus the inhibitor concentration (log[I]) which were constructed with the Prism software package (GraphPad). IC50 values were estimated in triplicate determinations from these plots and are expressed as mean ± standard deviation (SD).

Another data set concerns the target T2, recombinant human MAO-A (Homo sapiens, UniProt P21397).
T2 construct: purchased Sigma-Aldrich; host or cells: insect cells (microsomes)
T2 sequence (P21397 1-527): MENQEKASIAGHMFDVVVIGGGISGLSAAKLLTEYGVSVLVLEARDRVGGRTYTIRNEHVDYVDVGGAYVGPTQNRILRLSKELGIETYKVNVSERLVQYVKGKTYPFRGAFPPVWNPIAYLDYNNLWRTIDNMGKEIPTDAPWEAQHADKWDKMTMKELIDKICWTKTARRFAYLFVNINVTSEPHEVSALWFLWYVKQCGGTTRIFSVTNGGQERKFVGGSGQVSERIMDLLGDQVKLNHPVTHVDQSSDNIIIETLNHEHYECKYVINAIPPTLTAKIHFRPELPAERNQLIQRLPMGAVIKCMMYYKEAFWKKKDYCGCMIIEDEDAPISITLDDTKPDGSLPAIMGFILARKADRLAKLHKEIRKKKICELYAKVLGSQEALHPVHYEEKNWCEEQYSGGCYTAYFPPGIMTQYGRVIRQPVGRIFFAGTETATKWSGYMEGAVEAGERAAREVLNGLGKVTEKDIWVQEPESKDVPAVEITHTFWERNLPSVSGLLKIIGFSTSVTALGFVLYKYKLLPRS
Kind of data set: MAO-A inhibition, IC50 determination with kynuramine as substrate (fluorescence of 4-hydroxyquinoline). It is filed as biochemical. Particulars: 50 µM kynuramine, mean ± SD of triplicate, NI = no inhibition observed at 100 µM. The protocol: as §1, §2
IC50 values for the inhibition of MAO were measured as described previously. Microsomes from insect cells containing recombinant human MAO-A and MAO-B (5 mg protein/mL) served as enzyme sources (Sigma-Aldrich) while kynuramine was used as non-specific MAO substrate. The enzyme reactions (200 µL reactions prepared in 96-well microtiter plates) contained phosphate buffer (100 mM, pH 7.4), 50 µM kynuramine and the test inhibitors at concentrations of 0.003–100 µM. […] The reactions were initiated with addition of MAO-A (0.0075 mg protein/mL) or MAO-B (0.015 mg protein/mL) and after 20 min of incubation at 37 °C, the reactions were terminated by the addition of 80 µL NaOH (2 N). The concentration of 4-hydroxyquinoline, the product of kynuramine oxidation by MAO, was measured by fluorescence spectrophotometry (λex = 310 nm; λem = 400 nm). IC50 values were estimated from sigmoidal plots of enzyme catalytic rate versus the inhibitor concentration (log[I]) which were constructed with the Prism software package (GraphPad). IC50 values were estimated in triplicate determinations from these plots and are expressed as mean ± standard deviation (SD).

Where “and” joins values, the source holds several entries; their conditions need not be identical. Identical values can stand only once.

As to `COc1ccc2c(c1)[nH]c1c(C)nccc12` [Harmine, reference compound], the IC50 – broadly, the midpoint of a concentration-inhibition curve – on recombinant human MAO-B is > 100 µM.

`Brc1ccc2noc(-c3ccccc3)c2c1` [Compound 3g, 5-Bromo-3-phenylbenzo[c]isoxazole]: the melting point (in general, the temperature, or range, at which the solid turns liquid) was in the range of 116 to 118 °C. Moreover, at recombinant human MAO-B, the “SI (selectivity index)” value is 3.4 and the IC50 was 5.79 ± 0.013 µM. Further, at recombinant human MAO-A, the IC50 was 19.5 ± 3.2 µM.

Consider `Clc1ccc2noc(-c3ccccc3)c2c1` [Compound 3j, 5-Chloro-3-phenylbenzo[c]isoxazole], for which the figures for the IC50 at recombinant human MAO-B and at recombinant human MAO-A were 4.43 ± 0.12 µM and 10.6 ± 0.049 µM, respectively.

Regarding `Clc1ccc(-c2onc3ccc(I)cc23)cc1` [Compound 3b, 3-(4-Chlorophenyl)-5-iodobenzo[c]isoxazole], the melting point was in the range of 185 to 187 °C. Moreover, at recombinant human MAO-B, the “SI (selectivity index)” value came to 12; the IC50 was < 6.59 µM and 6.59 µM. Besides, the IC50 at recombinant human MAO-A is 77.7 ± 5.97 µM.

For the compound `Cc1nc(-c2cc3noc(-c4ccccc4)c3cc2Cl)no1` [Compound 3e, 5-Chloro-6-(5-methyl-1,2,4-oxadiazol-3-yl)-3-phenylbenzo[c]isoxazole], the melting point lay in the range of 171 to 172 °C. Also, on recombinant human MAO-B, the “SI (selectivity index)” value stood at 2.5 and the IC50 stood at 3.55 ± 0.037 µM. Besides, at recombinant human MAO-A, the IC50 stood at 8.95 ± 0.581 µM.

`Cc1ccc(-c2onc3ccc(Cl)cc23)cc1` [Compound 3c, 5-Chloro-3-(p-tolyl)benzo[c]isoxazole] yielded a melting point of 136 to 138 °C. For the same compound, at recombinant human MAO-B, the “SI (selectivity index)” value was determined as 3.3 and the IC50 came out at 2.63 ± 0.178 µM. Moreover, the IC50 on recombinant human MAO-A was found to be 8.76 ± 0.058 µM.

Consider `COc1ccc(-c2onc3ccc(I)cc23)cc1` [Compound 3a, 5-Iodo-3-(4-methoxyphenyl)benzo[c]isoxazole], for which the melting point is 112 to 114 °C. For the same compound, at recombinant human MAO-B, the “SI (selectivity index)” value was determined as 6.4; the IC50 was < 6.59 µM and 3.03 µM. The IC50 on recombinant human MAO-A turned out to be 19.4 ± 2.58 µM.

`COc1ccc(-c2onc3ccc(Cl)cc23)cc1` [Compound 3o, 5-Chloro-3-(4-methoxyphenyl)benzo[c]isoxazole] yielded a melting point of 174 °C. In addition, on recombinant human MAO-B, the “SI (selectivity index)” value is 3.6 and the IC50 came to 2.34 ± 0.055 µM. Besides, on recombinant human MAO-A, the IC50 is 8.49 ± 0.017 µM.

Compound `Cc1ccc(-c2onc3ccc(I)cc23)cc1` [Compound 3i, 5-Iodo-3-(p-tolyl)benzo[c]isoxazole] yielded a melting point of 109 to 110 °C. Besides, at recombinant human MAO-B, the “SI (selectivity index)” value amounted to 13; the IC50 is < 6.59 µM and 3.49 µM. In addition, the IC50 at recombinant human MAO-A came out at 43.9 ± 11.3 µM.

The compound `N#Cc1ccc(-c2onc3ccc(Cl)cc23)cc1` [Compound 7b, 4-(5-Chlorobenzo[c]isoxazol-3-yl)benzonitrile] came in with a melting point of 236 to 237 °C. Further, on recombinant human MAO-B, the “SI (selectivity index)” value is reported as 622 and the IC50 came to 0.098 ± 0.0036 µM. Further, the “fold more potent MAO-B inhibition than homologues” value on recombinant human MAO-B (versus p-tolyl (3c), phenyl (3j), p-Br-phenyl (3m), p-Cl-phenyl (3n) and p-OCH3-phenyl (3o) homologues) was “at least 12 fold”. Besides, the IC50 on recombinant human MAO-A was 61 ± 9.19 µM.

`Clc1ccc(-c2onc3ccc(Cl)cc23)cc1` [Compound 3n, 5-Chloro-3-(4-chlorophenyl)benzo[c]isoxazole] registered a melting point of 229 to 232 °C. For the same compound, at recombinant human MAO-B, the “SI (selectivity index)” value was determined as 39 and the IC50 was found to be 2.07 ± 0.381 µM. Besides, the IC50 on recombinant human MAO-A amounted to 81.3 ± 28.7 µM.

As to `Clc1cc2noc(-c3ccccc3)c2cc1Cl` [Compound 3k, 6-Dichloro-3-phenylbenzo[c]isoxazole], the values for the IC50 at recombinant human MAO-B and at recombinant human MAO-A were 5.56 ± 0.73 µM and > 100 µM, respectively.

Compound `C(#Cc1ccc2noc(-c3ccccc3)c2c1)c1ccccc1` [Compound 3d, 3-Phenyl-5-(phenylethynyl)benzo[c]isoxazole] displayed a melting point of 143 to 144 °C. At recombinant human MAO-B, the “SI (selectivity index)” value was found to be 9.0 and the IC50 came to 7.92 ± 0.684 µM. Further, the IC50 on recombinant human MAO-A came out at 71.6 ± 3.08 µM.

As to `Clc1ccc2noc(-c3ccc(Br)cc3)c2c1` [Compound 3m, 3-(4-Bromophenyl)-5-chlorobenzo[c]isoxazole], the melting point fell in the range of 230 to 232 °C. In addition, on recombinant human MAO-B, the “SI (selectivity index)” value stood at 71 and the IC50 was found to be 1.18 ± 0.022 µM. In addition, the IC50 at recombinant human MAO-A is 83.2 ± 33.3 µM.

Consider `Cc1nc(-c2cc3noc(-c4ccc(C#N)cc4)c3cc2Cl)no1` [Compound 7c, 4-(5-Chloro-6-(5-methyl-1,2,4-oxadiazol-3-yl)benzo[c]isoxazol-3-yl)benzonitrile], for which the melting point was 257 to 258 °C. Besides, at recombinant human MAO-B, the IC50 turned out to be 0.139 ± 0.044 µM. Further, the IC50 on recombinant human MAO-A is > 100 µM.

As to `CC1(c2ccc3noc(-c4cccc(Cl)c4)c3c2)OCCO1` [Compound 3f, 3-(3-Chlorophenyl)-5-(2-methyl-1,3-dioxolan-2-yl)benzo[c]isoxazole], the melting point was in the range of 175 to 177 °C. The IC50 at recombinant human MAO-B was 25.1 ± 2.41 µM. Also, on recombinant human MAO-A, the IC50 is > 100 µM.

Turning to `c1ccc(-c2onc3ccc(Oc4ccc5noc(-c6ccccc6)c5c4)cc23)cc1` [Compound 5, 5,5'-Oxybis(3-phenylbenzo[c]isoxazole)], the melting point is 190 to 192 °C. Further, on recombinant human MAO-B, the “SI (selectivity index)” value is 0.33 and the IC50 was 10 ± 0.949 µM. Moreover, at recombinant human MAO-A, the IC50 was 3.29 ± 0.254 µM.

In turn, `Ic1ccc2noc(-c3ccccc3)c2c1` [Compound 3h, 5-Iodo-3-phenylbenzo[c]isoxazole] had a melting point of 112 to 115 °C. Besides, at recombinant human MAO-B, the “SI (selectivity index)” value is 1.1; the 50% inhibitory concentration (IC50) was < 16.3 µM and 16.3 µM. Also, at recombinant human MAO-A, the IC50 was 17.7 ± 0.424 µM.
